Among the data in paper PMC2228302, “Crystal structure of Leishmania tarentolae hypoxanthine-guanine phosphoribosyltransferase” (BMC Structural Biology, 2007) are IC50 and stoichiometry N values, retold here.

The first test deals with Leishmania HGPRT (Leishmania tarentolae, UniProt Q9NJI5, D188E/G191E/H176R/L189Y/T185D/V183G/V192L/W184M). Nature of the test: biochemical. Conditions: IC50, Leishmania HGPRT; approximate value stated in text. As to the method:
The HGPRT enzyme inhibition assay was performed for 1 min in a 1 ml reaction volume containing 100 mM Tris-HCl, 5 mM MgSO4, 1 mM PRPP, 0.04 mM guanine at pH 7.4 [41]. An extinction coefficient of 4.2 was used.
Take `Oc1ncnc2[nH]ncc12` [allopurinol]: the IC50 was about 200 µM.

The same test, now with this note: IC50, recombinant L. tarentolae HGPRT; 1 min, 1 mM PRPP, 0.04 mM guanine, pH 7.4; six inhibitor concentrations in triplicate.
In the case of `Nc1nc2c(nc(N)n2[C@@H]2O[C@H](CO)[C@@H](O)[C@H]2O)c(=O)[nH]1` [8-aminoguanosine], the IC50 came out at 94 µM.
Same read-out and setting: the figure for `O=C(O)c1cc(=O)[nH]c(=O)[nH]1` [Orotic acid] is 432 µM; for `Oc1ncnc2[nH]ncc12` [allopurinol] it is 194 µM.
On the same count and under the same terms, in the case of `CO/N=C(\C(=O)N[C@@H]1C(=O)N2C(C(=O)O)=C(COC(C)=O)CS[C@H]12)c1csc(N)n1` [cefotaxime] it was 180 µM.

The test is the same for the next values; noted with them: recombinant L. tarentolae HGPRT; 1 min, 1 mM PRPP, 0.04 mM guanine, pH 7.4; six inhibitor concentrations in triplicate; read-out: IC50.
With `O=c1[nH]c(=O)n([C@H]2C[C@H](O)[C@@H](CO)O2)cc1Br` [5-bromodeoxiuridine], the IC50 stood at 350 µM.
With `Cc1cnc(=O)[nH]c1N` [5-metilcitosine], the IC50 was determined as 412 µM.
On the same count and under the same terms, in the case of `Nc1nc(Cl)c2[nH]cnc2n1` [6-cloroguanine] it was 838 µM; in that of `O=c1[nH]cnc2c([C@@H]3O[C@H](CO)[C@@H](O)[C@H]3O)n[nH]c12` [formicin B], 260 µM.
For `Nc1ncnc2c1ccn2[C@@H]1O[C@H](CO)[C@@H](O)[C@H]1O` [tubercidine], the IC50 is 533 µM.
The same measure, in the same setting: in the case of azaadenine it was 210 µM.

A further test addresses Leishmania tarentolae hypoxanthine-guanine phosphoribosyltransferase (Leishmania tarentolae). Nature of the test: crystal structure; co-crystallized with GMP in 19% PEG 4000, 20.6% isopropanol, 5% glycerol, 95 mM tri-sodium citrate, pH 5.6; space group P212121; two monomers (chains A and B) in the asymmetric unit; 2.1 Å.
Conditions: not given
For the molecule “Leishmania tarentolae hypoxanthine-guanine phosphoribosyltransferase (enzyme)”, the stoichiometry N came to 2.
